Results on 2 compounds are retold here after publication PMC11767673 (2024).

Assay [1] concerns OR7 aptamer (DNA, aptamer) CAAGGAAAATCCTTCAACGAAGTGGG
In words: transmembrane electrochemical impedance spectroscopy (potentiostat and impedance reader). The conditions noted are these: 137 mM NaCl, 2.7 mM KCl, 5 mM MgCl2; PBS pH 7.4, 3% DMSO, room temperature; aptamer immobilised on membrane; control, highest concentration not given.

Assay [2] shares this test system. Put plainly: transmembrane electrochemical impedance spectroscopy (commercial potentiostat), Langmuir fit. The following applies: 137 mM NaCl, 2.7 mM KCl, 5 mM MgCl2; PBS pH 7.4, 3% DMSO, room temperature; aptamer immobilised on membrane.
Assay [3] shares this test system. In words: transmembrane electrochemical impedance spectroscopy (ADuCM350 impedance reader), Langmuir fit. The following applies: 137 mM NaCl, 2.7 mM KCl, 5 mM MgCl2; PBS pH 7.4, 3% DMSO, room temperature; aptamer immobilised on membrane.

Regarding `CCN(CC)CCCC(C)Nc1ccnc2cc(Cl)ccc12` (stereo not drawn), the binding entry in assay [1] is “no”.

As a reminder, the KD is the equilibrium constant for the complex coming apart. A lower KD goes with tighter binding. In the case of `CCN(CC)Cc1cc(Nc2ccnc3cc(Cl)ccc23)ccc1O`, the KD in assay [2] is 2 nM; in assay [3], 4 nM.
